The values below come from US10689459B2, “Treatment of breast cancer brain metastases” (THE GENERAL HOSPITAL CORPORATION, priority 2014, dated 2020).

One data set deals with BT474-Gluc-BR cells. Briefly: In vitro sensitivity of cancer cells isolated from a brain metastatic tumor. It is filed as cell-based, human. Conditions: BT474-Gluc-BR cultured for a week in vitro. From the text: We began our investigation into the resistance of breast cancer BM to PI3K inhibition by asking if breast cancer cells require constant influence from the brain microenvironment. We isolated breast cancer cells after dissociation of a brain metastatic tumor (termed BT474-Gluc-BR). After cultured for a week in vitro, the vast majority of viable cells were cancer cells, as identified by GFP. […] Instead, breast cancer cells must receive continuous support from the brain microenvironment in order to maintain resistance. […]
The xCELLigence system (Acea Biosciences Inc.) was used to assess the cell index of T-47D, BT474 and MDA-MB-361 cells. xCELLigence measures electrical impedance across micro-electrodes integrated at the bottom of tissue culture E-plates to provide quantitative information about the biological status of cells, including cell number, morphology and viability. […] Cells were monitored every 15 m for a period of up to 24 h via the incorporated sensor electrode arrays of the E-Plate 96. […] Electric impedance was measured in 1 h intervals after addition of drug until the end of the experiment. Cell index value, which is a dimensionless parameter derived as a relative change in measured electrical impedance to represent numbers of attached cells, was calculated from the electric impedance and plotted using the RTCA software provided by the vendor. […]

For data set [1], the system named is human breast cancer cells growing in the brain parenchyma (BT474, MDA-MB-361, T-47D). As to the kind of experiment: Brain metastatic xenograft tumor growth (three cell lines, Example 1). It is filed as in vivo, nude mice. To be noted: COMPOUND A 30 or 50 mg/kg once a day p.o.; FIG. 1B. From the text: (§1) 5-(2,6-di-morpholin-4-yl-pyrimidin-4-yl)-4-trifluoromethyl-pyridin-2-ylamine (referred to herein as “COMPOUND A”) is a potent and specific pan-Class I PI3K inhibitor with activity against breast cancer cells bearing HER2-amplification as well as oncogenic PI3K catalytic subunit alpha (PIK3CA) mutations. We compared the efficacy of COMPOUND A on identical human HER2-positive breast cancer cells growing in the MFP or in the brain parenchyma of nude mice. The three breast cancer cell lines examined included HER2-amplified BT474, HER2-amplified and PIK3CA mutant (E545K) MDA-MB-361, and PIK3CA mutant (H1047R) T-47D cell lines. […] Furthermore, the concentration of COMPOUND A in breast tumors growing at both sites, as well as in the plasma of these mice was identical.
(§2) BT474, MDA-MB-361, and T-47D cells were transduced with an expression cassette encoding Gluc and GFP separated by an internal ribosomal entry site, using a lentiviral vector. GFP-positive cells were sorted with a FACSAria cell sorter (BD Biosciences). […]
(§3) Tumor size was measured twice a week by measuring the activity of secreted Gluc in the blood. […] Blood was transferred to an opaque 96-well plate, and Gluc activity was measured using coelenterazine (CTZ; Nanolight) as a substrate and a plate luminometer (Centro XS LB960; Berthold Technologies). […]

Data set [2] in a line: Compound A concentration measurement in tumor and plasma (LC-MS/MS). It is filed as in vivo, nude mice. To be noted: tumor lysate by LC-MS/MS; comparison between sites. Here is the method: Tumor samples were collected, weighed and lysed in Lysing Matrix D tube (MP Biomedicals) in RIPA buffer (Cell Signaling Technologies (CST)) at fixed weight/volume ratio. The samples were centrifuged at 13,000 rpm and 4° C. in Micro centrifuge for 10 min. Supernatant was collected from the lysate and stored at −80° C. The COMPOUND A concentration in tumor lysate was analyzed by LC-MS/MS at Inventiv Health Clinical Lab, Inc. It was then normalized by tumor weight-lysis buffer ratio to yield COMPOUND A exposure (ng/mL) in tumor tissue.

In the next data set the test system is p-AKT. Briefly: p-AKT inhibition in tumor tissue (BM versus MFP tumors). It is filed as in vivo, nude mice. To be noted: tumor tissue collected two hours after the final dose.
Text: as §1

Data set [3] relates to HER2- or PI3K-driven breast tumors growing in the MFP (BT474, MDA-MB-361, T-47D). Briefly: Mammary fat pad (MFP) xenograft tumor growth. It is filed as in vivo, nude mice. Conditions: COMPOUND A 30 or 50 mg/kg once a day p.o.; FIG. 1A.
Text: as §1, §2, §3

Data set [4] has as its system three HER2-positive breast cancer cell lines. As to the kind of experiment: Resistance analysis of secreted growth factors (CellTiter-Glo rescue). It is filed as cell-based, human. To be noted: unbiased analysis of 220 growth factors; 96 h incubation. The text has this:
A collection of cDNA constructs representing secreted and single pass transmembrane proteins was identified (as described previously described^56) and purchased from Invitrogen Ultimate ORF collection. (The library is maintained by DMP BioArchive.) pCDNA-DEST40 (Invitrogen) was the plasmid vector for all clones, and all clone inserts were confirmed by full sequencing. For this study a collection of 338 cDNA constructs, representing 220 unique secreted and single pass transmembrane proteins, was used to identify rescued ligands in the present of each compound treatment—each cDNA construct was reverse-transfected using HEK293T/17. […] CellTiter-Glo assay was then used for conducting end-point read out. Following plate to plate normalization of the raw CTG reading for triplicates, the rescue % value for each secreted protein was calculated using the following formula: Rescue %=[Median (drug+supe)−Median (drug)]/[Median (DMSO)−Median (drug)]. The statistical probability score of the Rescue % value was also calculated: p-value=Chidist [Z(drug+supe)^2, 1], where Z(drug+supe)=[Median (drug+supe)−Median (drug)]/Std(drug+supe), where drug+supe stands for the individual sample that were treated with individual supernatant that was expected to contain one unique secreted protein. […]
For orientation: ATP-based viability assays read luminescence as a measure of living cells.

For `Nc1cc(C(F)(F)F)c(-c2cc(N3CCOCC3)nc(N3CCOCC3)n2)cn1` [COMPOUND A, 5-(2,6-di-morpholin-4-yl-pyrimidin-4-yl)-4-trifluoromethyl-pyridin-2-ylamine], the “in vitro sensitivity of brain microenvironment-exposed cells versus parental cells” value in the data set on BT474-Gluc-BR cells is given as “similarly sensitive”. Moreover, in data set [1], the “tumor response to treatment, established brain metastatic lesions” value was “resistant to treatment”. Moreover, the “concentration in breast tumors growing at both sites (MFP, brain) and in plasma” value in data set [2] was “identical”. The “level of p-AKT inhibition in BM compared with MFP tumors” value in the data set with p-AKT is given as “comparable level of p-AKT inhibition”. The “tumor response to treatment, tumors growing in the MFP” value in data set [3] is “regression”.

B1: NRG-1: neuregulin 1, HER3 ligand; secreted growth factor (protein)
chain: TSHLVKCAEKEKTFCVNGGECFMVKDLSNPSRYLCKCPNEFTGDRCQNYVMASFYKHLGIEFMEAEELYQK
B1: the “induction of resistance to COMPOUND A” value in data set [4] is “most potent inducers of resistance”.
